Among the data in DBAASP are MIC values, retold here.

Among the test systems are Escherichia coli W160-37; Staphylococcus aureus; Acinetobacter baumannii; Escherichia coli 170; Escherichia coli 4530; Salmonella typhimurium; Proteus vulgaris.
Holding throughout (test): ≥ marks a high value that may be exact or a test limit, other limits are often not marked, values filed in µg/mL are converted to µM
In assay [1] the test system is Bacillus megaterium ATCC 19213.
Assay [2] relates to Bacillus subtilis NBRC 3513.
For assay [3], the system named is Staphylococcus aureus NBRC 12732.
Assay [4] relates to Staphylococcus epidermidis NBRC 12933.
The subject of assay [5] is Enterobacter cloacae 2524.
In assay [6] the test system is Enterobacter cloacae 6780.
Assay [7] deals with Escherichia coli ATCC 25922.
Assay [8] has as its system Klebsiella pneumoniae 1625.
Assay [9] deals with Klebsiella pneumoniae 913.
Assay [10] has as its system Klebsiella pneumoniae ST258.
For assay [11], the system named is Pseudomonas aeruginosa 4677.
In assay [12] the test system is Pseudomonas aeruginosa ATCC 27853.
Assay [13] concerns Staphylococcus aureus ATCC 25923.
For assay [14], the system named is Streptococcus pneumoniae ATCC 49619.
The test system of assay [15] is Listeria monocytogenes ATCC 19111.
Assay [16] deals with Candida albicans ATCC 37092.
For assay [17], the system named is Candida tropicalis ATCC 37097.
For assay [18], the system named is Klebsiella oxytoca ATCC 49131.
The test system of assay [19] is Proteus vulgaris ATCC 49132.
For assay [20], the system named is Staphylococcus aureus ATCC 29213.
The subject of assay [21] is Staphylococcus aureus A170.
The test system of assay [22] is Staphylococcus epidermidis.
The test system of assay [23] is Bacillus subtilis IFO 3134.
Assay [24] has as its system Escherichia coli IFO 12734.
The subject of assay [25] is Pseudomonas aeruginosa IFO 12582.
Assay [26] has as its system Staphylococcus aureus IFO 12732.
Assay [27] concerns Bacillus megaterium KCTC 1096.
The test system of assay [28] is Bacillus subtilis KCTC 1918.
The test system of assay [29] is Escherichia coli KCTC 1682.
In assay [30] the test system is Pseudomonas aeruginosa KCTC 1637.
Assay [31] concerns Staphylococcus aureus KCTC 1621.

The structures appear in SMILES notation. Values after ≈ are worked out from the molar mass of the structure shown. Values joined by “and” are separate entries in the source; they are usually repeats but may differ in a detail not shown here. Equal entries are not always repeated. Some results are limits rather than exact numbers.

Usually MIC stands for the lowest concentration found to suppress growth. In the case of `CC[C@H](C)[C@H](NC(=O)[C@H](C)N)C(=O)N[C@@H](Cc1ccccc1)C(=O)N[C@H](C(=O)N[C@@H](Cc1ccccc1)C(=O)N[C@H](C(=O)N[C@@H](CCCN=C(N)N)C(=O)N[C@@H](Cc1c[nH]c2ccccc12)C(=O)N[C@@H](CC(C)C)C(=O)N[C@@H](CC(C)C)C(=O)N[C@@H](CCCCN)C(=O)N[C@@H](CC(C)C)C(=O)NCC(=O)N[C@@H](Cc1cnc[nH]1)C(=O)N[C@@H](Cc1cnc[nH]1)C(=O)NCC(=O)N[C@@H](CCCN=C(N)N)C(=O)O)[C@@H](C)CC)[C@@H](C)CC` [AIFIFIRWLLKLGHHGR], the MIC in assay [1] is 4 µM (≈ 8.31 µg/mL); in assay [2], 16 µM (≈ 33.2 µg/mL); in assay [3], 4 µM (≈ 8.31 µg/mL); in [4] it was 8 µM (≈ 16.6 µg/mL).

Take `CC[C@H](C)[C@H](N)C(=O)N[C@@H](CC(C)C)C(=O)N1CCC[C@H]1C(=O)N[C@@H](Cc1c[nH]c2ccccc12)C(=O)N[C@@H](CCCCN)C(=O)N[C@@H](CC(C)C)C(=O)N1CCC[C@H]1C(=O)N[C@@H](CC(C)C)C(=O)N[C@@H](CC(C)C)C(=O)N1CCC[C@H]1C(=O)N[C@@H](CC(C)C)C(=O)N[C@@H](CCCN=C(N)N)C(=O)N[C@@H](CCCN=C(N)N)C(N)=O` [ILPWKLPLLPLRR]: the minimal inhibitory concentration (MIC) was 9.29 µM (≈ 15 µg/mL) in the assay with Escherichia coli W160-37 and 6.19 µM (≈ 9.99 µg/mL) in the assay with Staphylococcus aureus.

`CC[C@H](C)[C@H](NC(=O)CN)C(=O)N[C@@H](CC(C)C)C(=O)N[C@@H](CCCCN)C(=O)N[C@H](C(=O)N[C@H](C(=O)N[C@@H](CCCCN)C(=O)N[C@@H](CO)C(=O)N[C@H](C(=O)N[C@@H](C)C(=O)N[C@@H](CO)C(=O)N[C@@H](CCCCN)C(=O)N[C@@H](CC(C)C)C(=O)N[C@@H](CCCCN)C(=O)N[C@@H](CCCN=C(N)N)C(=O)N[C@@H](CCCCN)C(=O)N[C@@H](C)C(=O)N[C@@H](CCCCN)C(=O)O)[C@@H](C)CC)[C@@H](C)CC)[C@@H](C)O` [GILKTIKSIASKLKRKAK]: the MIC against Acinetobacter baumannii is 2.21 µM (≈ 4.38 µg/mL); in assay [5], no less than 50 µM; in [6] it was 3.12 µM (≈ 6.19 µg/mL); with Escherichia coli 170 it was 1.56 µM (≈ 3.09 µg/mL); in the assay on Escherichia coli 4530, 25 µM (≈ 49.6 µg/mL); in assay [7] it was 1.56 µM (≈ 3.09 µg/mL). The minimum inhibitory concentration (MIC) in assay [8] was 1.56 µM (≈ 3.09 µg/mL); in assay [9] it was 3.12 µM (≈ 6.19 µg/mL); in assay [10], 25.2 µM (≈ 50 µg/mL); in assay [11] it was 25 µM (≈ 49.6 µg/mL); in assay [12] it was greater than 25.2 µM; with Salmonella typhimurium, 1.6 µM (≈ 3.17 µg/mL). Besides, the results for the MIC in assay [13] and in assay [14] were greater than 25.2 µM and no less than 50 µM, respectively.

Turning to `CSCC[C@H](NC(=O)CNC(=O)[C@@H](NC(=O)[C@@H]1CCCN1C(=O)[C@H](CCSC)NC(=O)CNC(=O)[C@H](CC(N)=O)NC(=O)[C@H](CC(N)=O)NC(=O)[C@H](Cc1ccc(O)cc1)NC(=O)[C@@H](NC(=O)[C@H](CCCN=C(N)N)NC(=O)[C@H](CS)NC(=O)[C@H](CCCN=C(N)N)NC(=O)[C@H](Cc1cnc[nH]1)NC(=O)[C@H](CCCCN)NC(=O)[C@H](CCCCN)NC(=O)[C@H](CCCN=C(N)N)NC(=O)[C@@H](N)CCCCN)C(C)C)[C@@H](C)O)C(=O)N[C@@H](Cc1ccc(O)cc1)C(=O)N[C@@H](CCCN=C(N)N)C(=O)N[C@@H](Cc1c[nH]c2ccccc12)C(=O)N[C@@H](CS)C(=O)O` [KRKKHRCRVYNNGMPTGMYRWC], the MIC in [15] amounted to 8 µM (≈ 22.3 µg/mL).

In the case of `CC(C)C[C@H](NC(=O)[C@H](CCCN=C(N)N)NC(=O)[C@H](CCCN=C(N)N)NC(=O)[C@H](Cc1ccc(O)cc1)NC(=O)[C@H](CC(C)C)NC(=O)[C@@H](N)CCCN=C(N)N)C(=O)N[C@@H](Cc1ccc(O)cc1)C(=O)N[C@@H](CCCN=C(N)N)C(N)=O` [RLYRRLYR], the MIC is 9 µM and 17.4 µM in [16]; 1.4 µM and 3.2 µM in [17]; 39 µM and 33.6 µM in [7]; 14.1 µM and 13.1 µM in assay [18]; 10.2 µM and 18.4 µM in [19]; 4.1 µM and 8.7 µM in assay [12]. Also, the MIC in assay [20] is 8.1 µM and 17.5 µM.

As for `CC[C@H](C)[C@H](NC(=O)[C@@H]1CCCN1C(=O)[C@H](CC(C)C)NC(=O)[C@@H](N)CC(C)C)C(=O)N[C@H](C(=O)N[C@@H](C)C(=O)N[C@@H](CC(N)=O)C(=O)N[C@@H](CC(C)C)C(=O)N[C@@H](CC(C)C)C(=O)N[C@@H](CCCCN)C(=O)N[C@@H](C)C(=O)N[C@@H](CC(C)C)C(=O)N[C@@H](CC(C)C)C(=O)O)C(C)C` [LLPIVANLLKALL], the MIC in [21] worked out at 3.6 µM (≈ 5 µg/mL); in assay [22], 7.19 µM (≈ 10 µg/mL).

With `CC[C@H](C)[C@H](NC(=O)[C@H](C)NC(=O)[C@@H]1CCCN1C(=O)[C@@H](NC(=O)[C@@H](NC(=O)[C@H](Cc1cnc[nH]1)NC(=O)[C@H](C)NC(=O)[C@H](C)NC(=O)[C@@H](NC(=O)[C@H](CCCCN)NC(=O)[C@H](C)NC(=O)[C@H](CC(C)C)NC(=O)[C@@H](NC(=O)CNC(=O)[C@H](Cc1ccccc1)NC(=O)[C@H](CC(C)C)NC(=O)CN)C(C)C)C(C)C)C(C)C)C(C)C)C(=O)N[C@@H](C)C(=O)N[C@@H](CCCCN)C(=O)N[C@@H](Cc1cnc[nH]1)C(=O)N[C@@H](Cc1ccccc1)C(N)=O` [GLFGVLAKVAAHVVPAIAKHF], the MIC is 4 µM (≈ 8.58 µg/mL) in assay [23], 16 µM (≈ 34.3 µg/mL) in [24], no less than 32 µM in [25] and 4 µM (≈ 8.58 µg/mL) in [26].

As for `CC[C@H](C)[C@H](NC(=O)[C@H](CCCCN)NC(=O)[C@H](CCCCN)NC(=O)[C@H](Cc1ccccc1)NC(=O)[C@H](CC(C)C)NC(=O)[C@H](CCCCN)NC(=O)[C@H](Cc1c[nH]c2ccccc12)NC(=O)[C@@H](N)CCCCN)C(=O)N1CCC[C@H]1C(=O)N[C@@H](CC(C)C)C(=O)N[C@@H](Cc1cnc[nH]1)C(=O)N[C@@H](CC(C)C)C(=O)N[C@@H](C)C(=O)N[C@@H](CCCCN)C(=O)N[C@@H](CCCCN)C(=O)N[C@@H](Cc1ccccc1)C(N)=O` [KWKLFKKIPLHLAKKF], the MIC in [27] was 3.12 µM (≈ 6.33 µg/mL); in assay [28], 1.1 µM (≈ 2.23 µg/mL); in assay [29] it was 8.84 µM (≈ 17.9 µg/mL); against Proteus vulgaris, 1.56 µM (≈ 3.16 µg/mL); in assay [30], 6.25 µM (≈ 12.7 µg/mL); in assay [31] it was 3.12 µM (≈ 6.33 µg/mL).
